In EPA's ToxValDB 9.5:
Where “and” joins values, the source holds several entries; their conditions need not be identical. Equal entries are not always repeated.

Assays:
[1] = system: Rattus norvegicus
[2] = system: Mus musculus; details: oral, drinking water
[3] = subchronic, duration: 3 months, oral, drinking water, M/F, Sprague-Dawley, Morris water maze (escape time, acquisition, day 1) + Morris water maze (escape time, acquisition, day 5)
[4] = subchronic, duration: 3 months, oral, drinking water, M/F, Sprague-Dawley, Morris water maze (escape time, acquisition, day 6)
[5] = subchronic, duration: 12 weeks, oral, drinking water, M, Sprague-Dawley, territorial aggression (ventral presenting posture events of stud male)
[6] = subchronic, duration: 30 days, oral, drinking water, M, Wistar, active avoidance (shuttle box, number of avoidances of conditioned shock stimulus)
[7] = short-term, duration: 28 days, M, BALB/c, activity cage (locomotion events, 60 min) + Morris water maze (escape time, acquisition, day 5) + Morris water maze (platform crossing, …
[8] = short-term, duration: 28 days, M, BALB/c, elevated plus maze (time in open arms) + forced swim (immobility time, last 4 min) + forced swim (immobility time, total 6 min)
[9] = subchronic, duration: 8 weeks, M, Kunming, Y-maze (number of training runs to meet 90% learning standard)
[10] = subchronic, duration: 8 weeks, M, Kunming, open field (grid entry, 3 minutes)
[11] = subchronic, duration: 10 weeks, ICR, Y-maze (number of training runs to meet 90% learning standard)
[12] = subchronic, duration: 30 days, F, Swiss Albino, rotarod (latency to fall, 25 rpm)
[13] = subchronic, duration: 64 days, M, C57BL/6, formalin test (flinches, early phase, 10 min) + formalin test (flinches, late phase, 60 min) + formalin test (flinches/10 min, 60 min) + …

Compound `[F-].[Na+]` [Sodium fluoride] has an LOEL ([1]; short-term, duration: 14 days, injection, intraperitoneal, M, Wistar, rotarod (endurance time)) of 9.05 mg/kg-day, an LOEL [1, 3] of 1.36 mg/kg-day and an NOEL [1, 3] of 0.68 mg/kg-day. For the same compound, the LOEL [1, 4] was 3.27 mg/kg-day, the NOEL [1, 4] was 0.33 mg/kg-day and the NOEL ([1]; subchronic, duration: 3 months, oral, drinking water, M/F, Sprague-Dawley, Morris water maze (platform crossing, probe test, day 7) + Morris water maze (time in target quadrant, probe test, day 7)) was 3.27 mg/kg-day. For the same compound, the LOEL ([1]; subchronic, duration: 3 months, oral, drinking water, M/F, Wistar, passive avoidance (step-down test, time to move from rubber mat to electrified bar, session 2, day 30) + passive avoidance (step-down test, …) was 5.84 mg/kg-day, the LOEL ([1]; subchronic, duration: 3 months, oral, drinking water, M, Sprague-Dawley, Morris water maze (escape time, acquisition, day 1) + Morris water maze (escape time, acquisition, day 11) + Morris water maze (escape time…) was 7.52 mg/kg-day and the NOEL ([1]; subchronic, duration: 3 months, oral, drinking water, M, Wistar, Morris water maze (entries into target quadrant, probe test, day 4) + Morris water maze (escape time, acquisition, day 2) + Morris water …) was 3.34 mg/kg-day. It also gave an LOEL ([1]; subchronic, duration: 3 months, oral, gavage, M/F, Sprague-Dawley, Morris water maze (escape time, acquisition day 1) + Morris water maze (escape time, acquisition, day 5)) of 9.05 mg/kg-day, an NOEL ([1]; subchronic, duration: 3 months, oral, gavage, M, Albino, open field (ambulation distance) + open field (ambulation time) + open field (immobility time) + open field, stereotypic events + open field…) of 9.05 mg/kg-day and an LOEL ([1]; subchronic, duration: 3 months, oral, gavage, M, Albino, open field (squares crossed)) of 4.52 mg/kg-day. For the same compound, the LOEL ([1]; subchronic, duration: 3 months, oral, gavage, M, Wistar, Y-maze (number of training runs to meet 90% learning standard, day 23) + Y-maze (number of training runs to meet 90% learning standard, day …) was 6.67 mg/kg-day, the NOEL ([1]; subchronic, duration: 12 weeks, oral, drinking water, M, Sprague-Dawley, sexual behavior (ejaculation latency) + territorial aggression (fights with stud male)) was 18.8 mg/kg-day and the LOEL ([1]; subchronic, duration: 12 weeks, oral, drinking water, M, Sprague-Dawley, sexual behavior (intromission latency) + sexual behavior (post-ejaculatory interval) + sexual behavior (time to first mount) + sexual …) was 6.27 mg/kg-day. It also gave an LOEL [1, 5] of 18.8 mg/kg-day, an NOEL [1, 5] of 6.27 mg/kg-day and an NOEL ([1]; subchronic, duration: 12 weeks, oral, gavage, Wistar, open field (ambulation distance, 12 wks) + open field (ambulation distance, 3 wks) + open field (ambulation events, 12 wks) + open field (…) of 2.3 mg/kg-day. The NOEL ([1]; subchronic, duration: 30 days, oral, drinking water, M/F, Wistar, activity cage (ambulatory events) + activity cage (head turning events) + activity cage (head turning time) + activity cage (rearing events…) was 10.4 mg/kg-day, the LOEL ([1]; subchronic, duration: 30 days, oral, drinking water, M/F, Wistar, activity cage (ambulatory time) + activity cage (rearing time) + activity cage (sitting events) + activity cage (sitting time) + activity …) was 10.4 mg/kg-day and the NOEL ([1]; subchronic, duration: 30 days, oral, drinking water, M, Wistar, T-maze (number of errors, retention phase)) was 40 mg/kg-day. For the same compound, the LOEL ([1]; subchronic, duration: 30 days, oral, drinking water, M, Wistar, T-maze (number of sessions to reach learning criterion)) was 40 mg/kg-day, the LOEL [1, 6] was 4.87 mg/kg-day and the NOEL [1, 6] was 2.33 mg/kg-day. The NOEL ([1]; subchronic, duration: 30 days, oral, drinking water, M, Wistar, active avoidance (shuttle box, number of escapes of conditioned shock stimulus) + active avoidance (shuttle box, number of failures to avoid…) was 4.87 mg/kg-day, the LOEL ([1]; subchronic, duration: 30 days, oral, drinking water, M, Wistar, dental fluorosis_0 degrees + dental fluorosis_1 degree + open field (squares crossed, test session)) was 2.33 mg/kg-day and the NOEL ([1]; subchronic, duration: 30 days, oral, drinking water, M, Wistar, open field (squares crossed, day 1 - minute 1) + open field (squares crossed, day 1 - minute 2) + open field (squares crossed, day 1) + open…) was 6.67 mg/kg-day. For the same compound, the NOEL ([1]; subchronic, duration: 30 days, oral, drinking water, M, Wistar, passive avoidance (exploration, number of crossings) + passive avoidance (exploration, time in small compartment)) was 14.8 mg/kg-day, the LOEL ([1]; subchronic, duration: 30 days, oral, drinking water, M, Wistar, passive avoidance (retention, number of crossings) + passive avoidance (retention, time in small compartment) + T-maze (exploratory activity…) was 14.8 mg/kg-day and the LOEL ([1]; subchronic, duration: 30 days, oral, drinking water, M, Wistar, passive avoidance (retention, time in small compartment) + T-maze (exploratory activity) + T-maze (number of correct choices) + T-maze (…) was 14.8 mg/kg-day. For the same compound, the “LOEL (mg% thigh bone)” value ([1]; subchronic, duration: 30 days, oral, gavage, motor activity (spontaneous) + orienting reflex) was 10.6, the LOEL ([1]; subchronic, duration: 60 days, oral, drinking water, F, Wistar, activity cage (exploratory motor activity events) + rotarod (latency to fall, 14 rpm)) was 111 mg/kg-day and the LOEL ([1]; subchronic, duration: 60 days, oral, drinking water, F, Wistar, activity cage (motor activity events) + rotarod (latency to fall, 14 rpm)) was 1.94 mg/L serum. It also gave an LOEL ([1]; subchronic, duration: 60 days, oral, drinking water, Wistar, passive avoidance (retention, latency)) of 1.8 mg/kg-day, an LOEL ([1]; subchronic, duration: 60 days, oral, gavage, F, Wistar, activity cage (ambulation events)) of 9.05 mg/kg-day and an NOEL ([1]; subchronic, duration: 60 days, oral, gavage, F, Wistar, rotarod (latency to fall, 14 rpm)) of 18.1 mg/kg-day. For the same compound, the NOEL ([2]; developmental, M, Kunming, generation: F1, F1: activity chamber (ambulation events) + F1: activity chamber (rearing events) + F1: novel object test (adaptation phase memory index) + …) was 18.4 mg/kg-day, the LOEL ([2]; developmental, M, NMRI, generation: F1, F1: maze test (completion time, assessment 1) + F1: maze test (completion time, assessment 2)) was 0.113 mg/day and the NOEL ([2]; short-term, duration: 28 days, M, BALB/c, activity cage (locomotion events, 10 min) + activity cage (rearing events, 10 min) + activity cage (rearing events, 60 min) + elevated plus …) was 1.16 mg/kg-day. It also gave an LOEL [2, 7] of 0.58 mg/kg-day, an NOEL [2, 7] of 0.23 mg/kg-day and an LOEL [2, 8] of 1.16 mg/kg-day. For the same compound, the NOEL [2, 8] was 0.58 mg/kg-day, the NOEL ([2]; subchronic, duration: 8 weeks, M, Kunming, Y-maze (% of correct responses 24 hrs after mastering learning standard)) was 1.16 mg/kg-day and the LOEL [2, 9] was 0.58 mg/kg-day and 0.7 mg/kg-day. For the same compound, the NOEL [2, 9] was 0.12 mg/kg-day and 0.35 mg/kg-day, the NOEL ([2]; subchronic, duration: 8 weeks, M, Kunming, open field (grid entry, 1 minute) + open field (rearing events) + open field (standing against wall events) + Y-maze (percent correct …) was 1.39 mg/kg-day and the LOEL [2, 10] was 1.39 mg/kg-day. It also gave an NOEL [2, 10] of 0.7 mg/kg-day, an NOEL ([2]; subchronic, duration: 10 weeks, ICR, Y-maze (% of correct responses 24 hrs after mastering learning standard)) of 1.19 mg/kg-day and an LOEL [2, 11] of 1.19 mg/kg-day. The NOEL [2, 11] was 0.59 mg/kg-day, the NOEL ([2]; subchronic, duration: 30 days, F, Swiss Albino, elevated plus maze (time to move from open to closed arm, trial 1) + open field (fecal matter) + open field (grooming time) + open field (…) was 24.5 mg/kg-day and the LOEL ([2]; subchronic, duration: 30 days, F, Swiss Albino, elevated plus maze (time to move from open to closed arm, trial 2) + forced swim (immobility time) + motor coordination (akinesia, latency …) was 12.3 mg/kg-day. It also gave an LOEL ([2]; subchronic, duration: 30 days, F, Swiss Albino, maze test (latency) + motor coordination (akinesia, latency time) + motor coordination (catalepsy, latency time) + swim test (total swim …) of 14.7 mg/kg-day, an LOEL [2, 12] of 24.5 mg/kg-day and an NOEL [2, 12] of 12.3 mg/kg-day. The LOEL ([2]; subchronic, duration: 64 days, M, C57BL/6, Von Frey hairs test (relative frequency of paw withdrawal)) was 5.79 mg/kg-day, the LOEL [2, 13] was 11.6 mg/kg-day and the NOEL [2, 13] was 5.79 mg/kg-day. The NOEL ([2]; subchronic, duration: 64 days, M, C57BL/6, formalin test (licking time, late phase, 60 min) + formalin test (licking time/10 min, 60 min) + open field (total distance moved, 1 hr) + …) was 11.6 mg/kg-day.
